Molecular target: T1, Human CARM1 (PRMT4) (Homo sapiens, UniProt Q86X55)
T1 construct: Flag-CARM1-His; made in house; host or cells: HEK 293F cells (BacMam baculovirus, pFastBacMam)
T1 sequence (Q86X55 2-585 isoform Q86X55-1): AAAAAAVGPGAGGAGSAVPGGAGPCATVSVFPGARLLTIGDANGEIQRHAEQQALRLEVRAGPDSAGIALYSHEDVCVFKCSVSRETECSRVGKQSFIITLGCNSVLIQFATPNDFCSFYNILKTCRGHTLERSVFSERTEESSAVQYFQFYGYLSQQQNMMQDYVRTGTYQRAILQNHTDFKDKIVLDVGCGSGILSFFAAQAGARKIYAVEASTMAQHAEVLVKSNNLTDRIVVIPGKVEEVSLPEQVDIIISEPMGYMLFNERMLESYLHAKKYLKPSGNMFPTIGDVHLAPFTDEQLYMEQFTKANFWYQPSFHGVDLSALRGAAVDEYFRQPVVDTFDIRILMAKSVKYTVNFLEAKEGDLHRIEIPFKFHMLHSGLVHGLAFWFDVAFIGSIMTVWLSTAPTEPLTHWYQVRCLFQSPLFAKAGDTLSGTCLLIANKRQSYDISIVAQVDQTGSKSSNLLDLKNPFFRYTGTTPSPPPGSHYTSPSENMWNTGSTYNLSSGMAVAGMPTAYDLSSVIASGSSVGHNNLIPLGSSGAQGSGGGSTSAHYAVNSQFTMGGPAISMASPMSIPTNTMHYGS
Test: CARM1 biochemical assay (3H-SAM Flashplate, peptide substrate)
Details: read-out: CARM1_ IC50
In short: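 FLAG/His-tagged human CARM1 (isoform 1, Δ539-561, baculovirus-expressed), 0.25 nM, preincubated 30 min at room temperature with compound (2% DMSO) in 20 mM Bicine pH 7.6, then reacted with 30 nM 3H-SAM and 250 nM biotinylated H3 16-30 peptide (R26 monomethyl). Stopped with 300 uM cold SAM; labelled peptide captured on streptavidin Flashplate; % inhibition versus DMSO and 1 mM SAH controls fitted to a 4- or 3-parameter curve.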

CC(C)n1ncc2c(C(=O)NCC3CCN(C)CC3)cc(-c3cccc(CN(C)CCN(C)C)c3)nc21 [Compound 162] and CC(C)n1ncc2c(C(=O)NCC3CCOCC3)cc(-c3cccc(CN(C)CCNC4CC4)c3)nc21 [Compound 167] are within 1.5-fold of each other in IC50: 91.6 nM for the first, 98.2 nM for the second.

CC(C)n1ncc2c(N3CCOCC3)cc(-c3cccc(CN(C)CCNC4CC4)c3)nc21 [Compound 163] and CNCCN(C)Cc1cccc(-c2cc(NS(C)(=O)=O)c3cnn(C(C)C)c3n2)c1 [Compound 169] are within 1.5-fold of each other in IC50: 161 nM for the first, 125 nM for the second.

CNCCN(C)Cc1cccc(-c2cc(NS(=O)(=O)C(F)(F)F)c3cnn(C(C)C)c3n2)c1 [Compound 164] and CNCCN(C)Cc1cccc(-c2cc(NS(C)(=O)=O)c3cnn(C(C)C)c3n2)c1 [Compound 170] are within 1.5-fold of each other in IC50: 358 nM for the first, 264 nM for the second.

First: CC(C)n1cnc2ccc(-c3ccc(CNCCN)cc3)cc21 [Compound 166]
Second: NCCNCc1ccc(-c2cnc3c(c2)OCC(=O)N3)cc1 [Compound 358]
The IC50 of the first is 5-fold higher: 31700 nM for the first, 6290 nM for the second.

Compared with CC(C)n1ncc2c(C(=O)NCc3c(F)cccc3F)cc(-c3cccc(CNCCN)c3)nc21 [Compound 168], COc1cccc(CNC(=O)c2cncc(-c3ccc(CNCCN)cc3)c2)c1 [Compound 356] is 1000-fold higher in IC50: 23.3 nM for the first, 24300 nM for the second.

Work on CNCCN(C)Cc1cccc(-c2cnc3c(c2)OCC(=O)N3)c1 [Compound 355] yielded an IC50 of 10000 nM.
